In the assay the test system is c-Myc. Kind of assay: c-Myc immunofluorescence assay. Format: cell-based, human. The settings on record: A549 cells, 24 hours, anti-c-Myc immunofluorescence. The gist of the method: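 Read-out is imaged c-Myc immunofluorescence, nucleus-segmented, in A549 lung carcinoma cells exposed to compound dose series for 24 h after 48 h growth. Fixation 4% paraformaldehyde, Triton permeabilization, antibody staining at room temperature; EC50 from logistic fit of signal versus concentration.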
As for `COc1ccc(-c2noc(N3CCC(C(=O)Nc4ccccc4Cl)CC3)n2)cc1` [Compound 224, N-(2-chlorophenyl)-1-(3-(4-methoxyphenyl)-1,2,4-oxadiazol-5-yl)piperidine-4-carboxamide], the “Myc Efficacy (−LogEC50)” value was “+ (+ >3 and <5)”.
The value for `COc1ccc(-c2noc(N3CCN(C(=O)N4CCN(C(C)=O)CC4)CC3)n2)cc1` [Compound 225, 1-(4-(4-(3-(4-methoxyphenyl)-1,2,4-oxadiazol-5-yl)piperazine-1-carbonyl)piperazin-1-yl)ethan-1-one] was “− (− ≤3)”; that for `COc1ccc(-c2noc(N3CCN(C(=O)N4CCCC(CC(C)C)C4)CC3)n2)cc1` (stereo not shown) [Compound 226, (3-isobutylpiperidin-1-yl)(4-(3-(4-methoxyphenyl)-1,2,4-oxadiazol-5-yl)piperazin-1-yl)methanone] was “+ (+ >3 and <5)”; that for `COc1ccc(-c2noc(N3CCN(C(=O)C4CCCN(CC(C)C)C4)CC3)n2)cc1` (stereo not shown) [Compound 227, (1-isobutylpiperidin-3-yl)(4-(3-(4-methoxyphenyl)-1,2,4-oxadiazol-5-yl)piperazin-1-yl)methanone] was “+ (+ >3 and <5)”.
In the case of `COc1ccc(-c2noc(N3CCC(C(=O)NCCCN4CCN(C(=O)c5ccccc5)CC4)CC3)n2)cc1` [Compound 228, N-(3-(4-benzoylpiperazin-1-yl)propyl)-1-(3-(4-methoxyphenyl)-1,2,4-oxadiazol-5-yl)piperidine-4-carboxamide] it was “+ (+ >3 and <5)”; in that of `COc1ccc(-c2noc(C3CCC(C(=O)NCC4CC(=O)N(C)C4)CC3)n2)cc1` (stereo not shown) [Compound 229, (1r,4r)-4-(3-(4-methoxyphenyl)-1,2,4-oxadiazol-5-yl)-N-((1-methyl-5-oxopyrrolidin-3-yl)methyl)cyclohexane-1-carboxamide], “+ (+ >3 and <5)”; in that of `CC(=O)Nc1cccc(-c2noc(N3CCC(C(=O)NCC4CCN(Cc5ccc(C)cc5)C4)CC3)n2)c1` (stereo not shown) [Compound 230, 1-(3-(3-acetamidophenyl)-1,2,4-oxadiazol-5-yl)-N-((1-(4-methylbenzyl)pyrrolidin-3-yl)methyl)piperidine-4-carboxamide], “+ (+ >3 and <5)”.
In the case of `COc1ccc(-c2noc(N3CCC(C(=O)NCC4CCN(Cc5ccc(C)cc5)C4)CC3)n2)c(Cl)c1` (stereo not shown) [Compound 231, 1-(3-(2-chloro-4-methoxyphenyl)-1,2,4-oxadiazol-5-yl)-N-((1-(4-methylbenzyl)pyrrolidin-3-yl)methyl)piperidine-4-carboxamide] it was “++ (++ ≥5 and <6)”; in that of `COc1ncc(-c2noc(N3CCC(C(=O)NCC4CCN(Cc5ccc(C)cc5)C4)CC3)n2)cn1` (stereo not shown) [Compound 232, 1-(3-(2-methoxypyrimidin-5-yl)-1,2,4-oxadiazol-5-yl)-N-((1-(4-methylbenzyl)pyrrolidin-3-yl)methyl)piperidine-4-carboxamide], “+ (+ >3 and <5)”.
Regarding `COc1cnc(-c2noc(N3CCC(C(=O)NCC4CCN(Cc5ccc(C)cc5)C4)CC3)n2)cn1` (stereo not shown) [Compound 233, 1-(3-(5-methoxypyrazin-2-yl)-1,2,4-oxadiazol-5-yl)-N-((1-(4-methylbenzyl)pyrrolidin-3-yl)methyl)piperidine-4-carboxamide], the “Myc Efficacy (−LogEC50)” value is “+ (+ >3 and <5)”.
In the case of `COc1ccc(-c2noc(N3CCC(C(=O)NCC4CCN(c5ccccc5)C4)CC3)n2)cc1` (stereo not shown) [Compound 234, 1-(3-(4-methoxyphenyl)-1,2,4-oxadiazol-5-yl)-N-((1-phenylpyrrolidin-3-yl)methyl)piperidine-4-carboxamide] it was “+ (+ >3 and <5)”; in that of `COc1ccc(-c2noc(N3CCN(c4nc5ccccc5[nH]4)CC3)n2)cc1` [Compound 235, 5-(4-(1H-benzo[d]imidazol-2-yl)piperazin-1-yl)-3-(4-methoxyphenyl)-1,2,4-oxadiazole], “+ (+ >3 and <5)”.
The value for `COc1ccc(-c2noc(N3CCN(C(=O)c4cccc(CN5CCCCC5)c4)CC3)n2)cc1` [Compound 236, (4-(3-(4-methoxyphenyl)-1,2,4-oxadiazol-5-yl)piperazin-1-yl)(3-(piperidin-1-ylmethyl)phenyl)methanone] was “++ (++ ≥5 and <6)”; that for `Cc1ccc(CN2CCC(CNC(=O)C3CCN(c4nc(-c5ccc(OC(F)(F)F)cc5)no4)CC3)C2)cc1` (stereo not shown) [Compound 237, N-((1-(4-methylbenzyl)pyrrolidin-3-yl)methyl)-1-(3-(4-(trifluoromethoxy)phenyl)-1,2,4-oxadiazol-5-yl)piperidine-4-carboxamide] was “++ (++ ≥5 and <6)”; that for `Cc1ccc(CN2CCC(CNC(=O)C3CCN(c4nc(-c5ccc(OC(F)F)cc5)no4)CC3)C2)cc1` (stereo not shown) [Compound 238, 1-(3-(4-(difluoromethoxy)phenyl)-1,2,4-oxadiazol-5-yl)-N-((1-(4-methylbenzyl)pyrrolidin-3-yl)methyl)piperidine-4-carboxamide] was “+++ (+++ ≥6)”.
On to `O=C(NCCCN1CCC(Cc2ccccc2)CC1)C1CCN(c2nc(-c3ccc(OC(F)(F)F)cc3)no2)CC1` [Compound 239, N-(3-(4-benzylpiperidin-1-yl)propyl)-1-(3-(4-(trifluoromethoxy)phenyl)-1,2,4-oxadiazol-5-yl)piperidine-4-carboxamide], for which the “Myc Efficacy (−LogEC50)” value is given as “+++ (+++ ≥6)”.
The value for `O=C(NCCCN1CCC(Cc2ccccc2)CC1)C1CCN(c2nc(-c3ccc(OC(F)F)cc3)no2)CC1` [Compound 240, N-(3-(4-benzylpiperidin-1-yl)propyl)-1-(3-(4-(difluoromethoxy)phenyl)-1,2,4-oxadiazol-5-yl)piperidine-4-carboxamide] was “+++ (+++ ≥6)”; that for `N#Cc1ccc(-c2noc(N3CCC(C(=O)NCCCN4CCC(Cc5ccccc5)CC4)CC3)n2)cc1` [Compound 241, N-(3-(4-benzylpiperidin-1-yl)propyl)-1-(3-(4-cyanophenyl)-1,2,4-oxadiazol-5-yl)piperidine-4-carboxamide] was “+++ (+++ ≥6)”; that for `COc1ccc(-c2noc(N3CCC(C(=O)NCC4CCN(C(=O)c5ccc(C)cn5)C4)CC3)n2)cc1` (stereo not shown) [Compound 242, 1-(3-(4-methoxyphenyl)-1,2,4-oxadiazol-5-yl)-N-((1-(5-methylpicolinoyl)pyrrolidin-3-yl)methyl)piperidine-4-carboxamide] was “+ (+ >3 and <5)”.
For the compound `Cc1ccc(CN2CCC(CNC(=O)C3CCN(c4nc(-c5ccc(Cl)cc5)no4)CC3)C2)nc1` (stereo not shown) [Compound 243, 1-(3-(4-chlorophenyl)-1,2,4-oxadiazol-5-yl)-N-((1-((5-methylpyridin-2-yl)methyl)pyrrolidin-3-yl)methyl)piperidine-4-carboxamide], the “Myc Efficacy (−LogEC50)” value is “+++ (+++ ≥6)”.
`Cc1ccc(CN2CCC(CNC(=O)C3CCN(c4nc(-c5ccc(C#N)cc5)no4)CC3)C2)nc1` (stereo not shown) [Compound 244, 1-(3-(4-cyanophenyl)-1,2,4-oxadiazol-5-yl)-N-((1-((5-methylpyridin-2-yl)methyl)pyrrolidin-3-yl)methyl)piperidine-4-carboxamide]: the “Myc Efficacy (−LogEC50)” value was “+ (+ >3 and <5)”.
Turning to `COc1ccc(-c2noc(N3CCN(C(=O)NCCCN4CCC(Oc5ccccc5)CC4)CC3)n2)cc1` [Compound 245, 4-(3-(4-methoxyphenyl)-1,2,4-oxadiazol-5-yl)-N-(3-(4-phenoxypiperidin-1-yl)propyl)piperazine-1-carboxamide], the “Myc Efficacy (−LogEC50)” value is listed as “+++ (+++ ≥6)”.
